Drawing on ChEMBL document CHEMBL5029195, “Substituted Imidazole Carboxamides as Novel Antibacterial Agents” (2022), this text covers IC90 for 14 compounds.

Assay [1] relates to Acinetobacter baumannii. As to the kind of experiment: Antibacterial activity against Acinetobacter baumannii ATCC 17978 assessed as inhibition of bacterial growth after 16 hrs by two fold dilution method. The format is functional.
Assay [2] has as its system Acinetobacter baumannii. Briefly: Antibacterial activity against Acinetobacter baumannii ATCC 17961 assessed as inhibition of bacterial growth after 16 hrs by two fold dilution method. It is filed as functional.

Turning to `Cn1c(-c2ccc(OCC#N)c(F)c2F)cnc1C(=O)Nc1ccc(C(=O)N2CCC(C(=O)N3CCSCC3)CC2)c(Cl)c1`, in the assay on Acinetobacter baumannii [1], the IC90 (in general, the point of the concentration-response curve where the effect stands at 90%) came to 0.21 µM. In the case of `CCc1cc(NC(=O)c2ncc(-c3ccc(OC)c(F)c3F)n2C)ccc1C(=O)N1CCN(CCCN(C)C)CC1`, the IC90 with Acinetobacter baumannii [2] was 0.26 µM. The same measure, in the same setting: for `COc1ccc(-c2cnc(C(=O)Nc3ccc(C(=O)N4CCC(OCCN)CC4)c(Cl)c3)n2C)c(F)c1F` the value was 0.04 µM; for `COc1ccc(-c2cnc(C(=O)Nc3ccc(C(=O)N4CCC(C(=O)[C@H]5CCNC[C@H]5O)CC4)c(Cl)c3)n2C)c(F)c1F`, 0.09 µM; for `COc1ccc(-c2cnc(C(=O)Nc3ccc(C(=O)N4CCC(C(=O)NCCC(=O)O)CC4)c(Cl)c3)n2C)c(F)c1F`, 3.3 µM. As to `CN(C)CCCN1CCN(C(=O)c2ccc(NC(=O)c3ncc(-c4ccc(OCC#N)c(F)c4F)n3C)cc2Cl)CC1`, the IC90 in the assay with Acinetobacter baumannii [1] was found to be 0.07 µM. With `Cn1c(-c2ccc(OC(F)F)c(F)c2F)cnc1C(=O)Nc1ccc(C(=O)N2CCC(C(=O)N3CCC(C(N)=O)C3)CC2)c(Cl)c1` (centres undefined), the IC90 with Acinetobacter baumannii [2] is 0.15 µM. Still for that read-out and setting: next, `Cn1c(-c2ccc(OC(F)F)c(F)c2F)cnc1C(=O)Nc1ccc(C(=O)N2CCC(C(=O)NC[C@H]3CCNC3)CC2)c(Cl)c1`: 0.04 µM. On to `CNCCN1CCN(C(=O)c2ccc(NC(=O)c3ncc(-c4ccc(OC)c(F)c4F)n3C)cc2Cl)CC1`, for which the IC90 with Acinetobacter baumannii [1] came out at 0.08 µM. As to `COc1ccc(-c2cnc(C(=O)Nc3ccc(C(=O)N4CCC(C(=O)[C@@H]5CCNC[C@H]5O)CC4)c(Cl)c3)n2C)c(F)c1F`, the IC90 in the assay with Acinetobacter baumannii [2] turned out to be 0.1 µM. For the compound `COc1ccc(-c2cnc(C(=O)Nc3ccc(C(=O)N4CCC(CN)CC4)c(Cl)c3)n2C)c(F)c1F`, the IC90 in the assay with Acinetobacter baumannii [1] was found to be 0.3 µM. Same read-out and setting: next, `COc1ccc(-c2cnc(C(=O)Nc3ccc(C(=O)N4CCN(C(=O)[C@@H]5C[C@@H](O)CN5)CC4)c(Cl)c3)n2C)c(F)c1F`: 0.1 µM; `CCc1cc(NC(=O)c2ncc(-c3ccc(OC)cc3Cl)n2C)ccc1C(=O)N1CCN(CCNC)CC1`: 2.3 µM.

`COc1ccc(-c2cnc(C(=O)Nc3ccc(C(=O)N4CCC(CCN)CC4)c(Cl)c3)n2C)c(F)c1F`: the IC90 in the assay on Acinetobacter baumannii [2] was found to be 0.03 µM.
